Patent US11981919B2, “Methods for forming three-dimensional human retinal tissue in vitro” (THE JOHNS HOPKINS UNIVERSITY, priority 2014, dated 2024)

Key:
[1] = test system: CB-iPSC6.2-derived retinal cups (RCs); assay: Retinoic acid treatment of hiPSC-derived retinal cups, rod-opsin expression by immunohistochemistry; format: cell-based, human; conditions: for rod-opsin expression (qualitative, microscopic observation): 3 independent experiments
Method: (§1) To promote photoreceptor maturation, suspension cultures of RCs were supplemented daily with 1 μM all-trans retinoic acid (RA; Sigma) at various time windows: W7-W17; W7-W14 or W10-W14; subsequently, RA concentration was decreased to 0.5 μM.
(§2) RCs were fixed in 4% PFA for 30 min. […] DAPI was used for nuclear counterstaining (Molecular Probes).

[2] = test system: KA.1- and IMR90-4-derived RCs; assay: as above; format: cell-based, human; conditions: RA treatment in W10-W14
Method: as §1, §2

Structure (SMILES): CC1=C(/C=C/C(C)=C/C=C/C(C)=C/C(=O)O)C(C)(C)CCC1 [retinoic acid, all-trans retinoic acid]
- rod-opsin expression (qualitative, microscopic observation) ([1]; 1 μM RA during W10-W14, W17 and W21): dispersed cells with strong rod-opsin expression in their cell bodies already at W17
- rod-opsin expression (qualitative, microscopic observation) ([1]; 1 μM RA in W7-W14): low levels of rod-opsin expression in the distal part of photoreceptor cells
- retinal cups showing dispersed cells with higher rod-opsin expression, also in cell bodies ([1]; 1 μM retinoic acid W10-W14, evaluated at W17, n=8): ~50%
- retinal cups showing a significant increase in the number of photoreceptors expressing rod opsin ([1]; 1 μM retinoic acid W10-W14, evaluated by W21, n=20): 90%
- rod-opsin expression (qualitative, microscopic observation) [2]: induction of rod-opsin expression was also observed, although at a later time and less efficiently than in CB-iPSC6.2-derived RCs
